US6204293A, “Inhibitors of protein isoprenyl transferases” (University of Pittsburgh, priority 1998, dated 2001)
Counter-ions that a name gives are not always drawn.

Biological target: T1, Rat brain protein farnesyltransferase (Rattus norvegicus, UniProt Q02293+Q04631)
T1 construct: Rat brain protein farnesyltransferase activity is measured; from tissue; host or cells: rat brain
Assay: % inhibition of farnesylation, scintillation proximity assay with biotin-K Ras B fragment
Assay type: biochemical
Settings: Table 2; 1 × 10^-6 M
Text: The ability of the compounds of the invention to inhibit protein farnesyltransferase or protein geranylgeranyltransferase can be measured according to the method of Moores, et al., J. Biol. Chem. 266: 14603 (1991) or the method of Vogt, et al., J. Biol. Chem. 270:660-664 (1995). In addition, procedures for determination of the inhibition of farnesylation of the oncogene protein Ras are described by Goldstein, et al., J. Biol. Chem., 266:15575-15578 (1991) and by Singh in U.S. Pat. No. 5,245,061.
In addition, in vitro inhibition of protein farnesyltransferase may be measured by the following procedure. Rat brain protein farnesyltransferase activity is measured using an Amersham Life Science commercial scintillation proximity assay kit and substituting a biotin-K Ras B fragment (biotin-[…]CO2 H), 0.1 mM final concentration, for the biotin-lamin substrate provided by Amersham. The enzyme is purified according to Reiss, Y., et al., Cell, 62: 81-88 (1990), utilizing steps one through three.
The % inhibition of protein farnesyltransferase was determined for representative compounds of the invention.

T1 sequence (Q02293 whole entry, one chain of several): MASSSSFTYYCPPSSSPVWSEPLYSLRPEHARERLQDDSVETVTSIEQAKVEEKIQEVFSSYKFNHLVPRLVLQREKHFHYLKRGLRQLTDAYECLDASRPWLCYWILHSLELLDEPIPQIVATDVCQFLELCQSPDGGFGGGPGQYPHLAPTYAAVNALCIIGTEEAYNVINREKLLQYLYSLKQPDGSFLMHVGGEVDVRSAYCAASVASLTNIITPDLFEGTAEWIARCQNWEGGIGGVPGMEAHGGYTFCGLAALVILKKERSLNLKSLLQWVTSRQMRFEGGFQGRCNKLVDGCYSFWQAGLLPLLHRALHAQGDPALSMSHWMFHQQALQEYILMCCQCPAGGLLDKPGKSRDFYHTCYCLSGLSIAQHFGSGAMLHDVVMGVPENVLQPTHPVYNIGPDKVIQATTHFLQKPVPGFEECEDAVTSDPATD

| Structure (SMILES) | % inhibition at 1 × 10^-6 M [%] |
| --- | --- |
| CSCC[C@H](NC(=O)c1ccc(/C=C/CC2CCCCC2)cc1-c1ccccc1C)C(=O)O [Example 471] | 94 |
| CSCC[C@H](NC(=O)c1ccc(/C=C/CCc2ccccc2)cc1-c1ccccc1C)C(=O)O [Example 472] | 97 |
| CSCC[C@H](NC(=O)c1ccc(CCCC(=O)c2ccc3ccccc3c2)cc1-c1ccccc1C)C(=O)O [Example 473] | 96 |
| CSCC[C@H](NC(=O)c1ccc(/C=C/CC(O)c2ccc3ccccc3c2)cc1-c1ccccc1C)C(=O)O (stereo partly shown) [Example 474] | 92 |
| CSCC[C@H](NC(=O)c1ccc(NCC(CO)(Cc2ccccc2)Cc2ccccc2)cc1-c1ccccc1C)C(=O)O [Example 475] | 21 |
| CSCC[C@H](NC(=O)c1ccc(NCC(CO)Cc2ccccc2)cc1-c1ccccc1C)C(=O)O (stereo partly shown) [Example 476] | 91 |
| CSCC[C@H](NC(=O)c1ccc(CCCCC2CCCCC2)cc1-c1ccccc1C)C(=O)O [Example 478] | 98 |
| CSCC[C@H](NC(=O)c1ccc(NCC(CO)CC2CCCCC2)cc1-c1ccccc1C)C(=O)O (stereo partly shown) [Example 479] | 95 |
| CSCC[C@H](NC(=O)c1ccc(C=CCCCc2ccccc2)cc1-c1ccccc1C)C(=O)O [Example 480] | 87 |
| CSCC[C@H](NC(=O)c1ccc(NC(=O)c2cnccc2C(F)(F)F)cc1-c1ccccc1C)C(=O)O [Example 481] | 95 |
| CSCC[C@H](NC(=O)c1ccc(/C=C/c2cncnc2)cc1-c1ccccc1C)C(=O)O [Example 494] | 96 |
| CSCC[C@H](NC(=O)c1ccc(/C=C/c2cnccn2)cc1-c1ccccc1C)C(=O)O [Example 495] | 95 |
| CSCC[C@H](NC(=O)c1ccc(C=CCc2ccc3ccccc3c2)cc1-c1ccccc1C)C(=O)O [Example 496] | 93 |
| CSCC[C@H](NC(=O)c1ccc(NCCO)cc1-c1ccccc1)C(=O)O [Example 502] | 24 |
| CSCC[C@H](NC(=O)c1ccc(NC(=O)[C@@H](N)COCc2ccccc2)cc1-c1ccccc1)C(=O)O [Example 503] | 57 |
| CSCC[C@H](NC(=O)c1ccc(CN(Cc2ccccc2)Cc2ccco2)cc1-c1ccccc1C)C(=O)O [Example 504] | 90 |
| CSCC[C@H](NC(=O)c1ccc(CN(CCO)c2ccccc2)cc1-c1ccccc1)C(=O)O [Example 505] | 72 |
| CSCC[C@H](NC(=O)c1ccc(CN(CCc2ccccc2)c2ccccc2)cc1-c1ccccc1C)C(=O)O [Example 507] | 96 |
| CSCC[C@H](NC(=O)c1ccc(CN(CCCc2ccccc2)c2ccccc2)cc1-c1ccccc1C)C(=O)O [Example 508] | 95 |
| CSCC[C@H](NC(=O)c1ccc(CN(CC(c2ccccc2)c2ccccc2)c2ccccc2)cc1-c1ccccc1C)C(=O)O [Example 509] | 77 |
| CSCC[C@H](NC(=O)c1ccc(CN(CC23CC4CC(CC(C4)C2)C3)c2ccccc2)cc1-c1ccccc1C)C(=O)O [Example 510] | 84 |
| CSCC[C@H](NC(=O)c1ccc(CN(Cc2ccccc2)Cc2ccccc2)cc1-c1ccccc1C)C(=O)O [Example 512] | 94 |
| CSCC[C@H](NC(=O)c1ccc(CN(CCc2ccccc2)Cc2ccccc2)cc1-c1ccccc1C)C(=O)O [Example 513] | 96 |
| CSCC[C@H](NC(=O)c1ccc(CN(Cc2ccccc2)Cc2cccc(Oc3ccccc3)c2)cc1-c1ccccc1C)C(=O)O [Example 514] | 94 |
| CSCC[C@H](NC(=O)c1ccc(CN(CCO)Cc2ccccc2)cc1-c1ccccc1)C(=O)O [Example 515] | 72 |
| CSCC[C@H](NC(=O)c1ccc(CN(C)CCc2ccccc2)cc1-c1ccccc1C)C(=O)O [Example 516] | 95 |
| CSCC[C@H](NC(=O)c1ccc(CNC(CC2CCCCC2)C(O)C(O)CC(C)C)cc1-c1ccccc1C)C(=O)O (stereo partly shown) [Example 528] | 99 |

Same assay, conditions: Table 3; 1 × 10^-7 M

| Structure (SMILES) | % inhibition at 1 × 10^-7 M [%] |
| --- | --- |
| CSCC[C@H](NC(=O)c1ccc(C#Cc2cncnc2)cc1-c1ccccc1C)C(=O)[O-].[Li+] [Example 493] | 51 |
| CSCC[C@H](NC(=O)c1ccc(CN(CCC23CC4CC(CC(C4)C2)C3)c2ccccc2)cc1-c1ccccc1C)C(=O)O [Example 511] | 82 |
| CSCC[C@H](NC(=O)c1ccc(CNCCc2c[nH]c3ccccc23)cc1-c1ccccc1C)C(=O)O [Example 519] | 89 |
| CSCC[C@H](NC(=O)c1ccc(CN[C@H](CO)C2CCCCC2)cc1-c1ccccc1C)C(=O)O [Example 520] | 97 |
| CSCC[C@H](NC(=O)c1ccc(CNC(Cc2ccccc2)Cc2ccccc2)cc1-c1ccccc1C)C(=O)O [Example 523] | 97 |
| CSCC[C@H](NC(=O)c1ccc(CNC(CC2CCCCC2)CC2CCCCC2)cc1-c1ccccc1C)C(=O)O [Example 524] | 99 |
| CSCC[C@H](NC(=O)c1ccc(CN[C@H](/C=C\CC(C)C)CC2CCCCC2)cc1-c1ccccc1C)C(=O)O [Example 526] | 96 |
| CSCC[C@H](NC(=O)c1ccc(CN[C@H](CCCC(C)C)CC2CCCCC2)cc1-c1ccccc1C)C(=O)O [Example 527] | 97 |

Same assay, conditions: Table 4; 1 × 10^-8 M

| Structure (SMILES) | % inhibition at 1 × 10^-8 M [%] |
| --- | --- |
| CSCC[C@H](NC(=O)c1ccc(CN(CCc2ccccc2)c2cncnc2)cc1-c1ccccc1C)C(=O)O [Example 518] | 90 |

Same assay, conditions: read-out: % inhibition at 1 × 10^-6 M; Table 2; 1 × 10^-6 M

| Structure (SMILES) | inhibition at 1 µM [%] |
| --- | --- |
| CSCC[C@H](NC(=O)c1ccc(Sc2ccc3ccccc3c2)cc1-c1ccccc1C)C(=O)O [Example 497, N-[4-(naphth-2-ylthio)-2-(2-methylphenyl)benzoyl]methionine] | 94 |
| CSCC[C@H](NC(=O)c1ccc(SCCc2ccccc2)cc1-c1ccccc1C)C(=O)O [Example 498, N-[4-(2-phenylethylthio)-2-(2-methylphenyl)benzoyl]methionine] | 98 |
| CCOC[C@H](CC1CCCCC1)OCc1ccc(C(=O)N[C@@H](CCSC)C(=O)O)c(-c2ccccc2C)c1 [Example 525, N-[4-(3-Cyclohexyl-1-ethoxypropan-2-yl)oxymethyl-2-(2-methylphenyl)benzoyl]methionine lithium salt] | 99 |
| CSCC[C@H](NC(=O)c1ccc(COCc2ccoc2)cc1-c1ccccc1C)C(=O)O [Example 530, N-[4-(furan-3-ylmethoxymethyl)-2-(2-methylphenyl)benzoyl]methionine litihium salt] | 94 |

Same assay, conditions: read-out: % inhibition at 1 × 10^-7 M

| Structure (SMILES) | inhibition at 0.1 µM [%] |
| --- | --- |
| CSCC[C@H](NC(=O)c1ccc(COC(Cc2ccccc2)Cc2ccccc2)cc1-c1ccccc1C)C(=O)O [Example 522, N-[4-(1,3-diphenylpropan-2-yl)oxymethyl-2-(2-methylphenyl)benzoyl]methionine lithium salt] | 93 |
| CSCC[C@H](NC(=O)c1ccc(COCCc2ccco2)cc1-c1ccccc1C)C(=O)O [Example 531, N-[4-(2-furan-2-ylethoxymethyl)-2-(2-methylphenyl)benzoyl]methionine lithium salt] | 74 |
| CSCC[C@H](NC(=O)c1ccc(COCc2cc3ccccc3o2)cc1-c1ccccc1C)C(=O)O [Example 533, N-[4-(benzofuran-2-ylmethoxymethyl)-2-(2-methylphenyl)benzoyl]methionine lithium salt] | 91 |
| CSCC[C@H](NC(=O)c1ccc(COC(Cc2ccccc2)c2ccco2)cc1-c1ccccc1C)C(=O)O (stereo partly shown) [Example 534, N-[4-(1-furan-2-yl-2-phenylethoxymethyl)-2-(2-methylphenyl)benzoyl]methionine lithium salt] | 84 |
| CSCC[C@H](NC(=O)c1ccc(COCCc2ccc(-c3ccc(F)cc3)o2)cc1-c1ccccc1C)C(=O)O [Example 535, N-[4-(5-(4-fluorophenyl)furan-2-ylethoxymethyl)-2-(2-methylphenyl)benzoyl]methionine lithium salt] | 89 |
| CSCC[C@H](NC(=O)c1ccc(COCCc2ccc(-c3ccc(Cl)cc3)o2)cc1-c1ccccc1C)C(=O)O [Example 536, N-[4-(5-(4-chlorophenyl)furan-2-ylethoxymethyl)-2-(2-methylphenyl)benzoyl]methionine lithium salt] | 79 |
| CSCC[C@H](NC(=O)c1ccc(COCc2cncs2)cc1-c1ccccc1C)C(=O)O [Example 539, N-[4-(thiazol-5-ylmethoxymethyl)-2-(2-methylphenyl)benzoyl]methionine lithium salt] | 89 |

Same assay, conditions: read-out: % inhibition at 1 × 10^-7 M; Table 3; 1 × 10^-7 M

| Structure (SMILES) | inhibition at 0.1 µM [%] |
| --- | --- |
| C=C(C)C1CC=C(COCc2ccc(C(=O)N[C@@H](CCSC)C(=O)O)c(-c3ccccc3C)c2)CC1 (stereo partly shown) [Example 521, N-[4-(4-isoprop-2-enylcyclohexen-1-yl)methoxymethyl-2-(2-methylphenyl)benzoyl]methionine lithium salt] | 94 |
| CSCC[C@H](NC(=O)c1ccc(COCc2ccc(C)o2)cc1-c1ccccc1C)C(=O)O [Example 532, N-[4-(5-methylfuran-2-ylmethoxymethyl)-2-(2-methylphenyl)benzoyl]methioninelithium salt] | 88 |
